From US6365178B1, “Method of making pressure sensitive adhesive matrix patches for transdermal drug delivery using hydrophilic salts of drugs and hydrophobic pressure sensitive adhesive dispersions” (priority 1996, dated 2002)
Where a name gives a salt, the structure may show the parent alone.

Assays:
[1] = Visual/microscopic observation of matrix films for drug crystals after preparation and on storage (physical stability); format: physicochemical; settings: for Drug crystals in dried films: organic solvent-based adhesives MA-24, DUROTAK 2979
Experimental: As used herein, “physical stability” of a drug in a matrix patch includes the lack of recrystallization of the drug in the dried adhesive layer of the patch.
Pressure sensitive adhesive matrix systems described herein were prepared as follows. First, the solids content of a water-based or solvent-based adhesive in liquid form was determined by placing a known weight of liquid in a weighed aluminum dish and evaporating the solvents overnight in a 70° C. convection oven. The content of solid adhesive in the liquid was calculated by dividing the adhesive solid weight after drying by the initial total liquid weight. In some cases, the polyisobutylene (PIB) adhesives were prepared from polyisobutylene solids. The solid PIB was first dissolved in heptane to achieve a final solid content of about 30% by weight, and then the exact solid content was determined as described above. Next, a weighed quantity of adhesive liquid was added to a glass bottle, and the solid adhesive weight was calculated from the known solid fraction of the given adhesive liquid. The drug substance (hydrophilic salt or free drug form) was weighed and added to the adhesive solution in a quantity necessary to achieve a selected dry matrix film composition. The liquid containing the adhesive polymer drug substance was then mixed overnight. […] After mixing, approximately 8 ml of the solution was dispensed on a silanized polyester release liner and film cast using a casting knife with a gap size appropriate to achieve a final dried thickness of approximately 0.05-0.1 mm. The cast was dried in a 70° C. convection oven for 15-30 minutes to yield a dried matrix onto which an 0.08 mm thick polyethylene backing film was laminated. These matrix systems were then used to conduct in vitro skin flux experiments as described below. […]
The systems manufactured with the salt and the water-based adhesive dispersions were stored at room temperature and examined using optical microscopy at 100× magnification for the presence of drug crystals.

[2] = Dissolution of drug substance in liquid adhesive or solvent during matrix preparation; format: physicochemical; settings: for Dissolution in organic solvent-based adhesives / Dissolution in water-based adhesive dispersions: Example 1, 5% (w/w) in dried film; for Dissolution in organic solvent-based adhesives: MA-24, DUROTAK 2979; for Dissolution in water-based adhesive dispersions: PIB-500, NACOR 72-9965; for Dissolution in organic solvent system: Example 7, equivalent to 1% or 2% (w/w) diclofenac sodium
Experimental: Pressure sensitive adhesive matrix systems described herein were prepared as follows. First, the solids content of a water-based or solvent-based adhesive in liquid form was determined by placing a known weight of liquid in a weighed aluminum dish and evaporating the solvents overnight in a 70° C. convection oven. The content of solid adhesive in the liquid was calculated by dividing the adhesive solid weight after drying by the initial total liquid weight. In some cases, the polyisobutylene (PIB) adhesives were prepared from polyisobutylene solids. […] Next, a weighed quantity of adhesive liquid was added to a glass bottle, and the solid adhesive weight was calculated from the known solid fraction of the given adhesive liquid. The drug substance (hydrophilic salt or free drug form) was weighed and added to the adhesive solution in a quantity necessary to achieve a selected dry matrix film composition. The liquid containing the adhesive polymer drug substance was then mixed overnight. […] The cast was dried in a 70° C. convection oven for 15-30 minutes to yield a dried matrix onto which an 0.08 mm thick polyethylene backing film was laminated. These matrix systems were then used to conduct in vitro skin flux experiments as described below.

[3] = 5% (w/w) drug in Lord PIB-500 (water-based PIB) matrix, room temperature, microscopic
[4] = Example 2, NACOR 72-9965, 1% or 2% (w/w)
[5] = Example 2, TSR and DURO-TAK 2516, 1% or 2% (w/w)
[6] = Example 7, TSR, equivalent to 1% or 2% (w/w) diclofenac sodium
[7] = Example 8, Nacor 72-9965 with 5.0% Kollidon 90F, 12%

## CC(C)(C)NCC(O)c1ccc(O)c(CO)c1 (stereo not drawn) [Albuterol Free Base, albuterol]
[1]; 10% (w/w) in TSR (organic solvent-based acrylic), 59 weeks of storage at 40° C./75% RH, microscopic
  Observations: drug crystals: Crystals were observed

## O=C1CC2(CCCC2)CC(=O)N1CCCCN1CCN(c2ncccn2)CC1 [Buspirone Free Base, buspirone]
[2]
  Dissolution in organic solvent-based adhesives: dissolved readily
  Dissolution in water-based adhesive dispersions: water insoluble
[1]; [3]
  Observations: crystals form within: Crystals form within 3 days
[1]; 5% (w/w) drug in MA-24 (organic solvent-based PIB) matrix, room temperature, microscopic
  Observations: crystals form within: Crystals form within 11 days
[1]; Example 1, 5% (w/w)
  Drug crystals in dried films: visibly homogeneous and free from drug crystals
[1]; PIB adhesive (MA-24)/buspirone free base/isocetyl alcohol 86/1.5/12.5% (w/w), room temperature and 40° C./70%RH for 3 weeks, microscopic
  Recrystallization of buspirone in laminate: No recrystallization of buspirone occurred

## O=C1CC2(CCCC2)CC(=O)N1CCCCN1CCN(c2ncccn2)CC1 [Buspirone HCl, buspirone hydrochloride]
[2]; hydrochloride
  Dissolution in organic solvent-based adhesives: did not dissolve
  Dissolution in water-based adhesive dispersions: dissolved readily
[2]; [4]
  Dissolution in water-based adhesive dispersion: dissolved completely
[2]; [5]
  Dissolution in organic solvents of solvent-based adhesives: did not dissolve completely
[2]; Example 3, 0.70 g in 9.2 g acetone
  Dissolution in acetone: did not completely dissolve
[2]; Example 3, 0.70 g, 9.2 g acetone, 6.1 g isocetyl alcohol
  Dissolution in acetone/isocetyl alcohol mixture: did not completely dissolve
[2]; Example 3, blended with MA-24 organic solvent-based PIB adhesive
  Dissolution in acetone/isocetyl alcohol/PIB adhesive mixture: did not completely dissolve
[2]; Table 6, Acetone 12.0 g, 0.7 g drug
  Results: dissolution in solvent and in solvent/isocetyl alcohol/PIB adhesive mixture: Buspirone hydrochloride (0.7 g) did not dissolve in
[2]; Table 6, Chloroform
  Results: effect of addition of solvent solution PIB adhesive: resulted in precipitation of buspirone, and the resulting
[2]; Table 6, Chloroform 12.0 g, 0.7 g drug
  Results: dissolution in solvent and solvent/isocetyl alcohol mixture: Buspirone hydrochloride (0.7 g) dissolved in chloroform
[2]; Table 6, Ethyl acetate 12.0 g, 0.7 g drug
  Results: dissolution in solvent and in solvent/isocetyl alcohol/PIB adhesive mixture: Buspirone hydrochloride (0.7 g) did not dissolve in
[2]; Table 6, Methanol
  Results: behaviour of solvent/isocetyl alcohol/PIB adhesive mixture: phase separated
[2]; Table 6, Methanol 12.0 g, 0.7 g drug
  Results: dissolution in solvent: Buspirone hydrochloride (0.7 g) dissolved in methanol
[2]; Table 6, Toluene 12.0 g, 0.7 g drug
  Results: dissolution in solvent and in solvent/isocetyl alcohol/PIB adhesive mixture: Buspirone hydrochloride (0.7 g) did not dissolve in
[2]; Table 6, Water
  Results: behaviour of solvent/isocetyl alcohol/adhesive solution: phase separated. The resulting cast contained distinct
[2]; Table 6, Water 1.5 g, 0.7 g drug
  Results: dissolution in solvent: Buspirone hydrochloride (0.7 g) dissolved in water
[1]; [3]
  Observations: no crystals observed after: No crystals observed after 7 weeks
[1]; 5% (w/w) drug in MA-24 (organic solvent-based PIB) matrix, immediately after preparation
  Observations: drug crystals: crystals present
[1]; Example 1, 5% (w/w), hydrochloride
  Drug crystals in dried films: filled with drug crystals
[1]; Example 1, water-based adhesive dispersions PIB-500, NACOR 72-9965, 5% (w/w)
  Drug crystals in dried film: no crystals were found
[1]; [4]
  Drug crystals in dried adhesive matrix: visibly free of drug crystals
[1]; [5]
  Drug crystals in final dried casts: contained visible solid drug crystals
[1]; PIB adhesive (MA-24)/buspirone hydrochloride/isocetyl alcohol 86/1.5/12.5% (w/w), naked eye and microscopic
  Drug crystals in laminate: filled with buspirone crystals
[1]; Table 6, Chloroform
  Results: buspirone crystals in resulting cast: cast contained extensive buspirone crystals.
[1]; Table 6, Ethyl acetate
  Results: buspirone crystals in resulting cast: resulting cast contained extensive buspirone crystals.
[1]; Table 6, Methanol, adhesive formed a gel-like ball
  Results: casting of mixture: impossible to cast
[1]; Table 6, Toluene
  Results: buspirone crystals in resulting cast: contained extensive buspirone crystals.
[1]; Table 6, Water, buspirone only in water-rich phase
  Results: buspirone crystallization in resulting cast: extensively within 24 hours after casting.

## CC(=O)CC(c1ccccc1)c1c(O)c2ccccc2oc1=O (stereo not drawn) [Warfarin free drug, warfarin]
[2]; Example 8, TSR, 12% (w/w)
  Dissolution in organic solvents: dissolved readily
[1]; Example 8, TSR, 12% (w/w), visible and microscopic
  Drug crystals in dry film: free from drug crystals

## Clc1cccc(Cl)c1N=C1NCCN1 [clonidine HCl]
[1]; Example 10, water-based PIB 500/BUTYL 100 (Lord), 2% (w/w)
  Drug crystals in dried matrix: visibly free of drug crystals

## Clc1cccc(Cl)c1N=C1NCCN1 [clonidine free base, clonidine]
[2]; Example 10, VISTANEX MM L-100/LM-MH PIB blend in organic solvents, equivalent to 2% (w/w) HCl salt
  Dissolution in organic solvent solution: dissolved readily
[1]; Example 10, VISTANEX MM L-100/LM-MH PIB blend, equivalent to 2% (w/w) HCl salt
  Drug crystals in dry matrix film: free from drug crystals

## O=C(O)Cc1ccccc1Nc1c(Cl)cccc1Cl [diclofenac free acid, diclofenac]
[2]; TSR
  Dissolution in organic solvent system: completely dissolved
[1]; [6]
  Drug crystals in dried matrix: visually free of drug crystals

## O=C(O)Cc1ccccc1Nc1c(Cl)cccc1Cl [diclofenac sodium]
[2]; TSR
  Dissolution in organic solvent system: not sufficiently soluble
[1]; [6]
  Drug crystals in dried matrix: contained crystallized drug
[1]; Example 7, water-based NACOR 72-9965 and ROBOND PS20, 1% or 2% (w/w)
  Drug crystals in dried matrices: physically stable and visually free of drug crystals

## CCN(CC)CC(=O)Nc1c(C)cccc1C [lidocaine HCl]
[1]; Example 9, DURO-TAK 2516, equivalent to 1% (w/w) HCl salt, HCl
  Drug crystals in dried matrix: contains visible solid drug crystals
[1]; Example 9, NACOR 72-9965, 1% (w/w)
  Drug crystals in dried matrix: physically stable and free of drug crystals

## CCN(CC)CC(=O)Nc1c(C)cccc1C [lidocaine free base, lidocaine]
[1]; Example 9, DURO-TAK 2516, equivalent to 1% (w/w) HCl salt
  Drug crystals in dried matrix: visibly free of drug crystals

## CC(=O)CC(c1ccccc1)c1c(O)c2ccccc2oc1=O (stereo not drawn) [sodium warfarin, warfarin sodium]
[2]; [7]
  Dissolution in water-based dispersion: dissolved readily
[1]; [7]
  Drug crystals in dry matrix: free from visible and microscopic drug crystals

## albuterol sulfate
[1]; 10% (w/w) in NACOR 9965 (water-based acrylic) with 5% KOLLIDON 90F, 59 weeks of storage at 40° C./75% RH, microscopic
  Observations: drug crystals: No crystals were observed
